Results: publication PMC8769072, “Proteome‐scale mapping of binding sites in the unstructured regions of the human proteome” (Molecular Systems Biology, 2022)
pIC50, pKd, pKi: −log10 of the molar value. One block for each substance: values may come before it. Where no end group is shown, it is not given here.

Assays:
[1] = target: T1, TLN1 PTB (Homo sapiens, UniProt Q9Y490); assay: FP competition, TLN1 PTB; assay type: binding
T1 construct: Q9Y490; TLN1; PTB; 309; pHH0103; Sidhu Lab (PMID: 33438817); made in house; host or cells: bacteria (E. coli BL21(DE3) gold is named only for the phage-selection preparations)

[2] = target: T2, KPNA4 ARM (Homo sapiens, UniProt O00629); assay: FP competition, KPNA4 ARM major pocket (FITC-Myc probe); assay type: binding; details: for pIC50: FP competition with FITC-Myc320-328 probe for the major pocket, 50 mM KPO4 pH 7.5, n = 3 technical replicates; for pKd: Fig 5D, FP competition with FITC-Myc320-328, major groove, n = 3
T2 construct: O00629; KPNA4; Arm; 68; 487; pETM33/pETM41; Genescript; made in house; host or cells: bacteria (E. coli BL21(DE3) gold is named only for the phage-selection preparations)
Excerpt: (§1) Like other importins, KPNA4 has two distinct NLS‐binding pockets on the surface of an armadillo (ARM) repeat fold (major pocket, ARM 2–4; minor pocket, ARM 6–8; Fig 5B) (Smith et al, [2018]). Bipartite NLSs are usually 17–19 amino acids long and engage both pockets. Monopartite NLSs are short basic stretches, divided into five classes (Kosugi et al, [2009]): class I KR[KR]R or K[KR]RK, class II [PR]xxKR[^DE][KR] (where ^ indicates “not”), class III KRx[WFY]xxAF, class IV [RP]xxKR[KR][^DE], and class V LGKR[KR][WFY]. The class I and class II motifs preferentially interact with the major pocket (Kosugi et al, [2009]). In contrast, class III and class IV NLSs preferentially bind to the minor pocket. Using KPNA4 as a bait against the HD2 P8 library we identified 33 peptides found in 32 proteins. Of the 26 proteins for which information was available, 22 proteins were annotated as having nuclear or nucleolar localization in the UniProt database. To gain additional information we combined the data generated for KPNA4 by screening against the complete P8 HD2 library, with the results generated using two relevant sublibraries (the cytoplasmic and nuclear, and nuclear sublibraries) resulting in a set of 92 peptides containing NLS‐like sequences found in 76 proteins. Using these peptides we could generate consensus motifs that matched four of the previously reported NLS classes (Fig 5A; class I‐IV). […] Three peptides bound only to the major pocket. Eight peptides with class III motif and one KRxH‐containing peptide only bound to the minor pocket. Five peptides outcompeted both probe peptides, which may be explained by the amino acid sequence matching both class II and class III motifs (e.g., 1135‐ PSPKRKL ‐1139 in ZNF532; Fig 5), and possibly by cross specificity of the two binding pockets.

[3] = target: T2, KPNA4 ARM; assay: FP competition, KPNA4 ARM minor pocket (FITC-NCOR2 probe); assay type: binding
Excerpt: as §1

[4] = system: immobilized GST-tagged bait protein domains; assay: ProP-PD phage selections (HD2 P8, sublibraries, HD2 P3, HD1 P8) with NGS and confidence level; assay type: binding, human; details: bait CRK_SH3_1_P46108_124_198; library HD2; benchmarking set of validated motif instances; TRUE = motif instance recovered in the ProP-PD selection
[5] = target: T3, KEAP1 Kelch (Homo sapiens, UniProt Q14145); assay: FP competition, KEAP1 Kelch; assay type: binding
T3 construct: Q14145; KEAP1; Kelch; 321; 609; pETM33; Genescript; made in house; host or cells: bacteria (E. coli BL21(DE3) gold is named only for the phage-selection preparations)

[6] = target: T4, MDM2 SWIB (Homo sapiens, UniProt Q00987); assay: FP competition, MDM2 SWIB; assay type: binding
T4 construct: Q00987; MDM2; SWIB; 17; 125; pETM33; Genescript; His-GST (cleaved yes); made in house; host or cells: bacteria (E. coli BL21(DE3) gold is named only for the phage-selection preparations)

Substance: DLIFTDSKLYIPLE-NH2 [TPTE]
pIC50 [1]: 4.82

Substance: DLKRRLDSITSSQSSA-NH2 [KDR]
pIC50 [2]: 4.66
pKd [2]: 4.85
pIC50 [3]: 4.62

Substance: EDSIEPPHKRLCLSSE-NH2 [DMTF1]
pIC50 [2]: 6.89
pKd [2]: 7.12

Substance: ELKRKLEQEQKLVEVL-NH2 [MKL2]
pIC50 [3]: 4.44

Substance: ERENPSKRSRIERDID-NH2 [CTDSPL2]
pIC50 [2]: 5.72

Substance: IPEKKQRLEEATTICL-NH2 [AFF2]
pIC50 [2]: 5.64
pIC50 [3]: 2.42

Substance: SLAPVKRTYEQMEFPL-NH2 [ADNP]
pIC50 [3]: 5.89

Substance: TPEDDRSFQTVWATVF [KIAA1671]
pIC50 [6]: 4.14

Substance: YDPVTGEWKSLAKLPE-NH2 [KLHL24]
pIC50 [5]: 4.10

The next lines start with results.

pIC50 [1]: 6.38
pKi ([1]; Fig 3C, FP competition with FITC-PIP5K1C probe, triplicates): 7.18
Substance: FPTDERSWVYSPLHYS-NH2 [PIP5K1C]

pIC50 [5]: 4.36
Substance: GFDAVTGEFTGMPEQW-NH2 [PAK1]
motif_found [4]: FALSE

pIC50 [6]: 3.89
Substance: GFEAQWAALENKSKQR [NUMB]

pIC50 [3]: 6.39
pKd ([3]; read-out: KD (Fig 5D)): 7.33
Substance: GKKRTFDETVSTYVPL-NH2 [TPX2]

pIC50 [3]: 6.37
Substance: GVKRTYSEVYPGQQYL-NH2 [ZMIZ2]

pIC50 [5]: 5.21
Substance: IDPSTGERFPVTDAVN-NH2 [PLEC 4459-4474]

pIC50 [3]: 5.44
Substance: PFKRPHSTISDSSTSS-NH2 [PLEKHG4B]

pIC50 [3]: 6.92
Substance: PKRTYDMMEGRVGRAI-NH2 [NCOR2]

pIC50 [3]: 5.62
Substance: STMKRKHDEIQRSLPV-NH2 [ZBED9]

pIC50 [6]: 5.05
pKi ([6]; Fig 3C, FP competition with FITC-p53 probe, triplicates): 6.76
Substance: THFAELWGHLDHTMFF [RNF115]

pIC50 [2]: 6.62
Substance: VEPETKRLKLAASEDH-NH2 [ZRANB3]

pIC50 [1]: 4.21
Substance: VGPLTPLWTYPATAAG-NH2 [NYAP1]
